pIC50: −log10 of the molar value. Like-named read-outs stand apart in the source and are kept apart here.
Assays:
[1] = molecular target: T1, PDE4B: The catalytic domain of human PDE4B from S152-S528 (Homo sapiens, UniProt Q07343); experiment: PDE4 IC50 determination by Scintillation Proximity Assay, PDE4B; format: biochemical
T1 construct: His6 (N); thrombin cleavage site (N); made in house; host or cells: E. coli
Summary of the method: (§1)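 Enzyme was added to compound and [^3H]cAMP, then incubated 30 min at 30° (PDE4B 80 ng/ml; PDE4D 4 ng/ml). Product [^3H]AMP bound to SPA beads and was counted. IC50 was fitted by non-linear regression against DMSO and roflumilast controls.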

PDE4D = molecular target: T2, PDE4D (Homo sapiens, UniProt Q08499); experiment: PDE4 IC50 determination by Scintillation Proximity Assay, PDE4D; format: biochemical
T2 construct: PDE4D: The catalytic domain of human PDE4B from S3 16-V692; His6 (N); thrombin cleavage site (N); made in house; host or cells: E. coli
T2 sequence (Q08499 380-756): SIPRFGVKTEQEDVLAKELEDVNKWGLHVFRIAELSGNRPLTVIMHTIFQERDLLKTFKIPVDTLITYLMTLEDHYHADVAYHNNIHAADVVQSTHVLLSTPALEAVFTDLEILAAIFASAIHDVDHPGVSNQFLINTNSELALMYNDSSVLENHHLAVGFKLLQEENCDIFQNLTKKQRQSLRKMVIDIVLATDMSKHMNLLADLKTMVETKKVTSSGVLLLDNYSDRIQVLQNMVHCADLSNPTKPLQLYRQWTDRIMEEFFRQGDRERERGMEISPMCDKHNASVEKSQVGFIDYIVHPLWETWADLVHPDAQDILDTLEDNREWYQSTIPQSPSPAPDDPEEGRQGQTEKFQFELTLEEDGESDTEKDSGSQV
Summary of the method: as §1

[2] = molecular target: T3, full-length human PDE4B2 isozyme (Homo sapiens, UniProt Q07343); experiment: PDE4 IC50 determination by Scintillation Proximity Assay, PDE4B2; format: biochemical
T3 construct: The full-length human PDE4B2 isozyme; His6 (N); TEV cleavage site (N); made in house; host or cells: baculovirus infected insect cells (unpurified lysate)
T3 sequence (Q07343 1-564 isoform Q07343-2): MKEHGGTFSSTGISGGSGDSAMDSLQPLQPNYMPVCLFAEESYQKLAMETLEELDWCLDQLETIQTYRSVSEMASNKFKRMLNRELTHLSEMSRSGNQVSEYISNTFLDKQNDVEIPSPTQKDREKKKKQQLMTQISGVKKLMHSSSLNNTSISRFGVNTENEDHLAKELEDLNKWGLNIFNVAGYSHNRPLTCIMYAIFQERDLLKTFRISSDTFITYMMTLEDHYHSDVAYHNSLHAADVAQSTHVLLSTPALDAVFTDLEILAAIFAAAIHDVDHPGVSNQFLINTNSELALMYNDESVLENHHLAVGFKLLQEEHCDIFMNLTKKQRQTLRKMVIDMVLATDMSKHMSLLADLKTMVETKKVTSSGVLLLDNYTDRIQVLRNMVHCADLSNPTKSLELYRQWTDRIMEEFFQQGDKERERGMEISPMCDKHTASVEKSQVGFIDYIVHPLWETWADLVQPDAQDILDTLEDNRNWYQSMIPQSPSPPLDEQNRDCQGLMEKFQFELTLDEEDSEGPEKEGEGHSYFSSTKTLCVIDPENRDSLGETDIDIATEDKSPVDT
Summary of the method: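 Unpurified His6-TEV-tagged full-length human PDE4B2 from baculovirus-infected insect cell lysate (2.5 μl of 50% glycerol stock/ml) hydrolysed [3H]cAMP in 50 mM Tris pH 7.5, 8.3 mM MgCl, 1.7 mM EGTA, 0.01% BSA for 30 min at 30°. Stopped with SPA beads in 18 mM ZnSO4; [3H]AMP scintillation counted, IC50 by non-linear regression.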

[3] = molecular target: T4, full-length human PDE4D5 isozyme (Homo sapiens, UniProt Q08499); experiment: PDE4 IC50 determination by Scintillation Proximity Assay, PDE4D5; format: biochemical
T4 construct: The full-length human PDE4D5 isozyme; His6 (N); TEV cleavage site (N); made in house; host or cells: baculovirus infected insect cells (unpurified lysate)
T4 sequence (Q08499 1-745 isoform Q08499-6): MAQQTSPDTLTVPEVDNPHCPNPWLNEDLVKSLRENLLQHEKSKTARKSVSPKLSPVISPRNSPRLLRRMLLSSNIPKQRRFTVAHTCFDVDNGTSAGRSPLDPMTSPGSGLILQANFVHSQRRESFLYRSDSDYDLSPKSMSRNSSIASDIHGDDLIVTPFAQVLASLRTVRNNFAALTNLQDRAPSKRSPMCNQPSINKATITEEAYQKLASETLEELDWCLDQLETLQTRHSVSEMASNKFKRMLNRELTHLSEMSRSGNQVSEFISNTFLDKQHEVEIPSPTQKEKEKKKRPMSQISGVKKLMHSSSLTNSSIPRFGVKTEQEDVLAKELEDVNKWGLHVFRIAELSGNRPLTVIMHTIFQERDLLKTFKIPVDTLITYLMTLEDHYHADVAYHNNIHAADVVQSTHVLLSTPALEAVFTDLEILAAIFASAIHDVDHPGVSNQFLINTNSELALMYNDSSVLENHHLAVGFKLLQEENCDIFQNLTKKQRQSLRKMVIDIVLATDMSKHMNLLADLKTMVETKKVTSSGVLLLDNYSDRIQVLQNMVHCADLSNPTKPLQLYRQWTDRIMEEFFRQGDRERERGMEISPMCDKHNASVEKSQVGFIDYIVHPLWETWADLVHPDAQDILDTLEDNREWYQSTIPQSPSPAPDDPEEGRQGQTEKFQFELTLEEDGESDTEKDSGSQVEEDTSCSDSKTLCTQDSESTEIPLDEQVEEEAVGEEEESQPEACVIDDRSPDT
Summary of the method: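 Unpurified His6-tagged full-length human PDE4D5 from baculovirus-infected insect cell lysate, 0.083 μl glycerol stock/ml, hydrolysed [3H]cAMP in Tris pH 7.5/MgCl/EGTA buffer, 30 min at 30°. ZnSO4/SPA beads stop; [3H]AMP counted. Controls: DMSO and roflumilast; 11-point duplicate curves, nonlinear-regression IC50.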

[4] = tested on: TNFα levels in serum of LPS-challenged rats; experiment: Rat inhibition studies: serum TNFα after iv LPS challenge; format: in vivo; conditions: 2 h, 2 hr challenge delay, read-out: % inhibition r TNFα
Procedure: All studies were done with male rats CD (SD) IGS BR (Crl) (Charles River, France), which were grouped in to 5 animal groups.
At the end of the acclimatization period, the non-fasted rats were weighed, individually identified on the tail with a permanent marker and administered by oral (po) or interperitoneal (ip) route with either vehicle, reference or test compound in a volume of 10 mL/kg adapted to the body weight. The animals were gathered in groups of 5 animals in a polystyrene labeled cage with sawdust covered floors. 2-hours after vehicle, reference or test substance administration, rats received an intravenous (iv) injection of 0.1 mg/kg LPS in a volume of 1 mL/kg of body weight. 2 h after LPS challenge (or as indicated in Tables 3B and 4B), blood samples were collected into tubes without anticoagulant by retro-orbital puncture under gas (isoflurane) anesthesia. Samples were allowed to clot at room temperature for 5 to 10 min then put on ice until there were prepared by centrifugation (6000×g for 3 min at 4° C.) and stored at −20° C. until use. TNFα levels were measured in serum samples in duplicate by ELISA technique according to the manufacturer's procedure (Rat TNFα kit Quantikine M (RTA00, R&D System, France)). Data are reported as percent decrease in observed TNFα levels versus TNFa levels observed for vehicle dosed animal groups.

[5] = tested on: TNF alpha production in LPS-stimulated human blood (Buffy coat); experiment: TNF alpha production by stimulation with LPS in whole blood cultures; format: cell-based; conditions: human whole blood, LPS 100 ng/ml; read-out: IC 50 vs. indicated assay h TNFα
Procedure: Compounds were assayed to generate IC50 numbers as described in Example 54, using the following assay protocol (see Tables 3B and 4B for compounds and results).
Protocol • 1) Obtained 20 mM DMSO aliquots of desired concentrations of compounds (see Tables 3B and 4B for compounds tested and results). Placed 2 μl/well compound in DMSO in the top row of the dilution plate. Added 98 μl of RPMI 1640 media w/2.5% heat inactivated FBS.
2) Made the same media with 2% DMSO in it. Added 60 μl/well to well to make compound titration. Took 30 μl of top row and did a 1:3 dilution down the plate. In column 11 added 4 wells of 50 μM roflumilast and piclamilast. In column 12 added 2% DMSO media.
3) Transfered 20 μl/well into assay plates in duplicate.
4) Obtained human Buffy coat.
5) Diluted blood with 7 volumes of RPMI 1640 media with 1% P/S and 2.5% heat inactivated FBS (a 1:8 dilution)
6) Added160 μl/well of diluted blood to the assay plates.
7) Incubated for 1 hour at 37 degrees 5% CO2
8) Diluted LPS (which was already diluted to 1 mg/ml in PBS, 20 μl aliquots frozen −20 C.) to 10× desired final concentration to make a […] dilution (final concentration should be 100 ng/ml).
9) After 1 hour incubation added 20 μl/well of LPS to plates. A non-LPS treated background was also prepared. Samples were put on the shaker for a one minute 900 rpm.
10) Incubated for 4 hours in incubator.
11) After incubation, put on the shaker for a one minute 900 rpm and spun plate at 100 g for 10 minutes, Decel 5.
12) Carefully pipetted the top 75 μl supernatant into a new plate. Samples were frozen as needed.
Biosource hu-TNF ALPHA ELISA
• REAGENTS USED • DPBS 10×: VWR45000-428 (dilute 1:10 with Millipore Water) • TWEEN 20: FISHER BP337-500 • CAPTURE AND DETECTION ANTIBODIES: R&D DY510E • STREP-HRP: Biosource part SNN4004X • COLOR REAGENTS: R&D DY994 • STOP SOLUTION: from chemistry, or R&D DY999 • 1) Thawed samples to RT as needed. • 2) Added 50 μl Incubation buffer/well. • 3) Added 50 μl blood samples +50 μl Diluent buffer • 4) Incubated 2 hours at room temp. • 5) Washed the plate 4× with 300 μl/well wash buffer with microfill. Wash buffer was DPBS with 0.05% Tween pH 7.2-7.4 • 6) Added 100 μl biotinylated anti-TNFalpha • 7) Incubateed 1 hours at room temp. • 8) Washed the plate 4× with 300 μl/well wash buffer with microfill. Wash buffer was DPBS with 0.05% Tween pH 7.2-7.4 • 9) Added^100 μl Streptavidin-HRP working solution • 10) Incubated for 30 minutes at room temp. • 11) Washed the plate 4× with 300 μl/well wash buffer with microfill. Wash buffer was DPBS with 0.05% Tween pH 7.2-7.4 • 12) Added 100 μl Chromagen • 13) Incubated in the dark for 30 minutes until the blue color developed satisfactorily. • 14) Added 100 μl/well stop solution (2 N H2SO4). • 15) Read plate on WallacVictor at 450 nm for 0.1 sec/well

[6] = Table 1B, Formula I compounds, read-out: IC50 PDE4B
[7] = Table 1B, Formula I compounds, read-out: IC50 PDE4D
[8] = Table 1B, Formula I compounds, read-out: IC50 PDE4B2
[9] = Table 1B, Formula I compounds, read-out: IC50 PDE4D5
[10] = po, rat in vivo inhibition assay, 100 mg/kg po
[11] = second part of Table 2B (2-23 to 2-103), column 3, column is PDE4B in first part, read-out: IC 50 vs. indicated assay h TNFα
[12] = second part of Table 2B (2-23 to 2-103), column 5, column is PDE4D in first part, read-out: IC 50 vs. indicated assay h TNFα
[13] = second part of Table 2B (2-23 to 2-103), column 4, column is PDE4B2 in first part, read-out: IC 50 vs. indicated assay h TNFα

T1 sequence (Q07343 with tags, fused parts or gaps): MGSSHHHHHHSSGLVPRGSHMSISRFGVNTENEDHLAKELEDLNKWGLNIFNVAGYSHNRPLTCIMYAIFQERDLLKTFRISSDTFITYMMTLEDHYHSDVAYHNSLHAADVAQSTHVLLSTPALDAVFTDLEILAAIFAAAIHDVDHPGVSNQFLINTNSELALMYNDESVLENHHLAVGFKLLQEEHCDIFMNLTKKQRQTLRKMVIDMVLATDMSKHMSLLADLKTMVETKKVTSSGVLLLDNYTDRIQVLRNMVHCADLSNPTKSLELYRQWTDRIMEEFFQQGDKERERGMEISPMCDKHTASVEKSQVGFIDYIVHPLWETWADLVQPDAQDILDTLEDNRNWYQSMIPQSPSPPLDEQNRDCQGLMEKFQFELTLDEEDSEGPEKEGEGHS

| Structure (SMILES) | pIC50 [1, 6] | pIC50 (PDE4D; [7]) | pIC50 [2, 8] | pIC50 [3, 9] | inhibition in vivo at 100 mg/kg [4, 10] [%] | other results |
| --- | --- | --- | --- | --- | --- | --- |
| N#Cc1c(NC2CCCC2)sc(C(=O)c2cc(-c3ccccc3)no2)c1N [Compound 1-143, 4-Amino-2-cyclopentylamino-5-(3-phenyl-isoxazole-5-carbonyl)-thiophene-3-carbonitrile] | > 5.00 | > 5.00 | > 5.00 | > 5.00 |  | inhibition in vivo at 50 mg ([4]; rat, ip): > 20%; inhibition in vivo at 80 mg ([4]; rat, 80 mg, po): < 20%; inhibition in vivo at 100 mg/kg ([4]; ip, rat, 100 mg/kg, ip): > 20% |
| N#Cc1c(Nc2ccc(Oc3ccccc3)cc2)sc(C(=O)c2ccccc2Cl)c1N [Compound 1-161, 4-Amino-5-(2-chloro-benzoyl)-2-(4-phenoxy-phenylamino)-thiophene-3-carbonitrile] | > 5.00 | < 5.00 | > 5.00 | > 5.00 |  | inhibition in vivo at 90 mg ([4]; rat, ip): > 20%; inhibition in vivo at 90 mg ([4]; rat, po): < 20% |
| CSc1cccc(Nc2sc(C(=O)c3ccccc3)c(N)c2C#N)c1 [Compound 1-169, 4-Amino-5-benzoyl-2-(3-methylsulfanyl-phenylamino)-thiophene-3-carbonitrile] | > 5.00 | > 5.00 | > 5.00 | > 5.00 |  | inhibition in vivo at 70 mg ([4]; rat, 70 mg, po): > 20% |
| N#Cc1c(NC2CCCC2)sc(C(=O)c2ccccc2)c1N [Compound 1-171, 4-Amino-5-benzoyl-2-cyclopentylamino-thiophene-3-carbonitrile] | > 5.00 | > 5.00 | > 5.00 | > 5.00 | < 20 |  |
| N#Cc1c(NC2CCCC2)sc(C(=O)c2cc(-c3ccc(Cl)cc3)no2)c1N [Compound 1-173, 4-Amino-5-[3-(4-chloro-phenyl)-isoxazole-5-carbonyl]-2-cyclopentylamino-thiophene-3-carbonitrile] | > 5.00 | < 5.00 | > 5.00 | < 5.00 | < 20 |  |
| CSc1cccc(Nc2sc(C(=O)c3cc(-c4ccccc4)no3)c(N)c2C#N)c1 [Compound 1-181, 4-Amino-2-(3-methylsulfanyl-phenylamino)-5-(3-phenyl-isoxazole-5-carbonyl)-thiophene-3-carbonitrile] | > 5.00 | > 5.00 | > 5.00 | > 5.00 | < 20 |  |
| N#Cc1c(NC2CC2)sc(C(=O)c2cc(-c3ccccc3)no2)c1N [Compound 1-186, 4-Amino-2-cyclopropylamino-5-(3-phenyl-isoxazole-5-carbonyl)-thiophene-3-carbonitrile] | > 5.00 | < 5.00 | > 5.00 | > 5.00 | < 20 |  |
| N#Cc1c(NC2CCCC2)sc(C(=O)c2cc(-c3ccc(F)cc3)no2)c1N [Compound 1-221, 4-Amino-2-cyclopentylamino-5-[3-(4-fluoro-phenyl)-isoxazole-5-carbonyl]-thiophene-3-carbonitrile] | > 5.00 | < 5.00 | > 5.00 | < 5.00 |  | inhibition in vivo at 50 mg ([4]; rat, po): < 20% |
| Nc1nc(NC2CCCC2)sc1C(=O)c1cc(-c2ccccc2)no1 [Compound 2-9, (4-Amino-2-cyclopentylamino-thiazol-5-yl)-(3-phenyl-isoxazol-5-yl)-methanone] |  |  |  |  |  | pIC50 ([1]; first part of Table 2B (2-1 to 2-22), read-out: IC 50 vs. indicated assay PDE4B): > 5.00; pIC50 (PDE4D; first part of Table 2B (2-1 to 2-22), read-out: IC 50 vs. indicated assay PDE4D): > 5.00; pIC50 ([2]; first part of Table 2B (2-1 to 2-22), read-out: IC 50 vs. indicated assay PDE4B2): > 5.00; pIC50 ([3]; first part of Table 2B (2-1 to 2-22), read-out: IC 50 vs. indicated assay PDE4D5): > 5.00; inhibition in vivo at 100 mg/kg ([4]; po, rat in vivo, 100 mg/kg po, percent decrease in TNFα versus vehicle): > 20% |
| Nc1nc(Nc2ccc(C(=O)O)cc2)sc1C(=O)c1ccccc1 [Compound 2-35, 4-(4-Amino-5-benzoyl-thiazol-2-ylamino)-benzoic acid] |  |  |  |  |  | pIC50 [1, 11]: > 5.00; pIC50 (PDE4D; [12]): > 5.00; pIC50 [2, 13]: > 5.00; pIC50 [5]: < 5.00 |
| Nc1nc(NC2CCCC2)sc1C(=O)c1ccc(Oc2ccccc2)cc1 [Compound 2-76, (4-Amino-2-cyclopentylamino-thiazol-5-yl)-(4-phenoxy-phenyl)-methanone] |  |  |  |  |  | pIC50 [1, 11]: > 5.00; pIC50 (PDE4D; [12]): > 5.00; pIC50 [2, 13]: > 5.00; pIC50 [5]: < 5.00 |

Source: US7585859B2, “PDE4B inhibitors and uses therefor” (Plexxikon, Inc., priority 2004, dated 2009)
